# Measured values as given in US12691070B2, “Cationic lipids and preparation method thereof” (RiboX Therapeutics HK Limited, priority 2023, dated 2026).
# Key:
# [1] = RNA encapsulation efficacy by Quant-IT Ribogreen kit; assay type: physicochemical; details: LNP with cirRNA (SEQ ID NO: 1)
# Protocol: (§1) Ionizable lipid, DSPC, Cholesterol and DMG-PEG 2000 were mixed at a molar ratio of 50:10:38.5:1.5 in absolute ethanol. Circular RNA and linear mRNA payloads were suspended in 25 mM Acetate Buffer (pH 4.5). To form LNPs, three volumes of luciferase encoding RNA, in the form of cirRNA (SEQ ID NO:1) and mRNA (SEQ ID NO:2) respectively, were mixed with one volume of lipids in ethanol solution by microfluidic mixing with the Nanoassemblr Ignite (Precision Nanosystems) at a flow rate of 12 ml/min. The molar ratio of ionizable lipid to ribonucleotide was 15 or 6. The final lipid concentration in solution ranged from 1.5 mM to 6 mM. After encapsulation, the particles were dialyzed twice against PBS.
# (§2) The LNP size and polydispersity index (PDI), determined by dynamic light scattering (DLS), and zeta potential were measured by a Zetasizer machine (Malvern). RNA concentration and encapsulation efficacy were analyzed by the Quant-IT Ribogreen kit by calculating the percentage encapsulation at 100%−(RNA-LNPs/RNA-LNPs with Triton X-100).
# RAW 264.7 cells [2] = assay: In vitro expression of firefly-luciferase, RAW 264.7; assay type: cell-based; details: cirRNA (SEQ ID NO: 1) LNPs; firefly-luciferase luminescence; RAW 264.7 cells
# Protocol: (§3) RAW 264.7 and Hep G2 cells were transfected with 100 ng/mL of RNA-LNPs encoding for firefly-luciferase. At 72 hours post transfection, the cells were washed and lysed. The luciferase expression was determined in the cell lysates with the luciferase assay reagent kit (Promega), according to the kit protocol, luciferase activity was measured by a luminometer.
# Hep G2 cells [3] = assay: In vitro expression of firefly-luciferase, Hep G2; assay type: cell-based; details: cirRNA (SEQ ID NO: 1) LNPs; firefly-luciferase luminescence; Hep G2 cells
# Protocol: as §3
# BALB/C mice = assay: In vivo expression, whole-body luminescence (IVIS); details: cirRNA (SEQ ID NO: 1) LNPs, BALB/C mice
# Protocol: 6-8 week old, female BALB/C mice were injected with 0.05 mg*kg-1 of RNA-LNPs encoding for firefly-luciferase by intravenous injection. At 6 hours post injection, animals were intraperitoneally injected with 15 mg/ml of Luciferin substrate and whole-body luminescence was determined by a bioluminescent in vivo imaging system (IVIS).
# [4] = LNP size and polydispersity index (PDI) by dynamic light scattering; assay type: physicochemical; details: LNP with cirRNA (SEQ ID NO: 1); for Size: in nm (unit assumed)
# Protocol: as §1, §2
# [5] = LNP zeta potential (Zetasizer); assay type: physicochemical; details: LNP with cirRNA (SEQ ID NO: 1)
# Protocol: as §1, §2
# Hep G2 cells [6] = assay: In vitro toxicity (CellTiter-Glo cell viability), Hep G2; assay type: cell-based; details: cirRNA (SEQ ID NO: 1) LNPs; Hep G2 cells;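 further: percent of untreated cells luminescence signal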
# Protocol: (§4) RAW 264.7 and Hep G2 cells were transfected with 1 μg/mL RNA-LNPs. At 72 hours post transfection, cell viability was determined with the CellTiter-Glo® reagent kit, according to the kit protocol, measured by a luminometer.
# (§5) The cell viability was calculated according to the following formula: […]
# RAW 264.7 cells [7] = assay: In vitro toxicity (CellTiter-Glo cell viability), RAW 264.7; assay type: cell-based; details: cirRNA (SEQ ID NO: 1) LNPs; RAW 264.7 cells;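 further: percent of untreated cells luminescence signal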
# Protocol: as §4, §5
compound,measurement,setting,value
"CCCCC/C=C\C/C=C\CCCCCCCCN(CCCCCCCC/C=C\CCCCCCCC)CCOC(=O)NCCN(C)C [Lipid 67, 2-(((Z)-octadec-9-en-1-yl)((9Z,12Z)-octadeca-9,12-dien-1-yl)amino)ethyl (2-(dimethylamino)ethyl)carbamate]",Encapsulation Efficiency %,[1],99%
same,In vitro Expression RAW,RAW 264.7 cells [2],5.99E+02
same,In vitro Expression HepG2,Hep G2 cells [3],1.21E+05
same,In vivo Expression (Whole Body),BALB/C mice,6.00E+07
same,PDI,[4],0.087
same,Size,[4],142.9
same,Zeta (mV),[5],8.392 mV
same,In vitro Viability HepG2,Hep G2 cells [6],120%
same,In vitro Viability RAW,RAW 264.7 cells [7],107%
"CCCCC/C=C\C/C=C\CCCCCCCCN(CCCCCCCC/C=C\CCCCCCCC)CCOC(=O)NCCCN(CC)CC [Lipid 69, 2-(((Z)-octadec-9-en-1-yl)((9Z,12Z)-octadeca-9,12-dien-1-yl)amino)ethyl (3-(diethylamino)propyl)carbamate]",Encapsulation Efficiency %,[1],95%
same,In vitro Expression RAW,RAW 264.7 cells [2],2.25E+02
same,In vitro Expression HepG2,Hep G2 cells [3],4.62E+04
same,In vivo Expression (Whole Body),BALB/C mice,2.17E+06
same,PDI,[4],0.205
same,Size,[4],161.1
same,Zeta (mV),[5],16.31 mV
same,In vitro Viability HepG2,Hep G2 cells [6],86%
same,In vitro Viability RAW,RAW 264.7 cells [7],102%
"CCCCC/C=C\C/C=C\CCCCCCCCN(CCCCCCCC/C=C\CCCCCCCC)CCOC(=O)NCCN1CCN(C)CC1 [Lipid 70, 2-(((Z)-octadec-9-en-1-yl)((9Z,12Z)-octadeca-9,12-dien-1-yl)amino)ethyl (2-(4-methylpiperazin-1-yl)ethyl)carbamate]",Encapsulation Efficiency %,[1],97%
same,In vitro Expression RAW,RAW 264.7 cells [2],2.29E+03
same,In vitro Expression HepG2,Hep G2 cells [3],9.79E+04
same,In vivo Expression (Whole Body),BALB/C mice,2.08E+05
same,PDI,[4],0.115
same,Size,[4],83.09
same,Zeta (mV),[5],11.22 mV
same,In vitro Viability HepG2,Hep G2 cells [6],120%
same,In vitro Viability RAW,RAW 264.7 cells [7],104%
"CCCCC/C=C\C/C=C\CCCCCCCCN(CCCCCC(=O)OCC(CCCCCCCC)CCCCCCCCCC)CCOC(=O)NCc1ncc[nH]1 (stereo not drawn) [Lipid 76, 2-octyldodecyl 6-((2-((((1H-imidazol-2-yl)methyl)carbamoyl)oxy)ethyl)((9Z,12Z)-octadeca-9,12-dien-1-yl)amino)hexanoate]",Encapsulation Efficiency %,[1],96%
same,In vitro Expression RAW,RAW 264.7 cells [2],5.53E+02
same,In vitro Expression HepG2,Hep G2 cells [3],1.22E+04
same,In vivo Expression (Whole Body),BALB/C mice,2.55E+05
same,PDI,[4],0.1484
same,Size,[4],137.8
same,Zeta (mV),[5],0.03131 mV
same,In vitro Viability HepG2,Hep G2 cells [6],121%
same,In vitro Viability RAW,RAW 264.7 cells [7],86%
"CCCCC/C=C\C/C=C\CCCCCCCCN(CCCCCC(=O)OCC(CCCCCCCC)CCCCCCCCCC)CCOC(=O)NCCN1CCN(C)CC1 (stereo not drawn) [Lipid 78, 2-octyldodecyl 6-((2-(((2-(4-methylpiperazin-1-yl)ethyl)carbamoyl)oxy)ethyl)((9Z,12Z)-octadeca-9,12-dien-1-yl)amino)hexanoate]",Encapsulation Efficiency %,[1],100%
same,In vitro Expression RAW,RAW 264.7 cells [2],7.80E+03
same,In vitro Expression HepG2,Hep G2 cells [3],1.31E+05
same,In vivo Expression (Whole Body),BALB/C mice,4.92E+05
same,PDI,[4],0.0918
same,Size,[4],110
same,Zeta (mV),[5],9.83 mV
same,In vitro Viability HepG2,Hep G2 cells [6],113%
same,In vitro Viability RAW,RAW 264.7 cells [7],106%
"CCCCC/C=C\C/C=C\CCCCCCCCN(CCCCCC(=O)OCC(CCCCCCCC)CCCCCCCCCC)CCOC(=O)NCCN1CCOCC1 (stereo not drawn) [Lipid 79, 2-octyldodecyl 6-((2-(((2-morpholinoethyl)carbamoyl)oxy)ethyl)((9Z,12Z)-octadeca-9,12-dien-1-yl)amino)hexanoate]",Encapsulation Efficiency %,[1],93%
same,In vitro Expression RAW,RAW 264.7 cells [2],4.60E+01
same,In vitro Expression HepG2,Hep G2 cells [3],3.94E+03
same,In vivo Expression (Whole Body),BALB/C mice,4.70E+07
same,PDI,[4],0.2181
same,Size,[4],99.18
same,Zeta (mV),[5],−2.908 mV
same,In vitro Viability HepG2,Hep G2 cells [6],104%
same,In vitro Viability RAW,RAW 264.7 cells [7],104%
CCCCC/C=C\C/C=C\CCCCCCCCN(CCCCCCCC/C=C\C/C=C\CCCCC)CCOC(=O)NCCN1CCCCC1 [Lipid 85],Encapsulation Efficiency %,[1],91%
same,In vitro Expression RAW,RAW 264.7 cells [2],5.74E+05
same,In vitro Expression HepG2,Hep G2 cells [3],2.85E+07
same,In vivo Expression (Whole Body),BALB/C mice,1.96E+07
same,PDI,[4],0.1671
same,Size,[4],81.48
same,Zeta (mV),[5],4.031 mV
same,In vitro Viability HepG2,Hep G2 cells [6],78%
same,In vitro Viability RAW,RAW 264.7 cells [7],105%
"CCCCCCCOC(=O)CCCCCCCCCN(CCCCCCCCCC(=O)OCCCCCCC)CCOC(=O)NCCN1CCCC1 [Lipid 119, diheptyl 10,10′-((2-(((2-(pyrrolidin-1-yl)ethyl)carbamoyl)oxy)ethyl)azanediyl)bis(decanoate)]",Encapsulation Efficiency %,[1],96%
same,In vitro Expression RAW,RAW 264.7 cells [2],1.47E+04
same,In vitro Expression HepG2,Hep G2 cells [3],1.46E+03
same,In vivo Expression (Whole Body),BALB/C mice,9.30E+05
same,PDI,[4],0.064
same,Size,[4],142.1
same,Zeta (mV),[5],9.53 mV
same,In vitro Viability HepG2,Hep G2 cells [6],17%
same,In vitro Viability RAW,RAW 264.7 cells [7],8%
"CCCCCCCOC(=O)CCCCCCCCCN(CCCCCCCCCC(=O)OCCCCCCC)CCOC(=O)NCCN(C)C [Lipid 120, heptyl 10-(10-(heptyloxy)-10-oxodecyl)-2-methyl-6-oxo-7-oxa-2,5,10-triazaicosan-20-oate]",Encapsulation Efficiency %,[1],96%
same,In vitro Expression RAW,RAW 264.7 cells [2],8.51E+03
same,In vitro Expression HepG2,Hep G2 cells [3],2.13E+03
same,In vivo Expression (Whole Body),BALB/C mice,3.33E+05
same,PDI,[4],0.09314
same,Size,[4],143.8
same,Zeta (mV),[5],9.34 mV
same,In vitro Viability HepG2,Hep G2 cells [6],100%
same,In vitro Viability RAW,RAW 264.7 cells [7],81%
"CCCCCCCOC(=O)CCCCCCCCCN(CCCCCCCCCC(=O)OCCCCCCC)CCOC(=O)NCCCN(CC)CC [Lipid 122, heptyl 3-ethyl-12-(10-(heptyloxy)-10-oxodecyl)-8-oxo-9-oxa-3,7,12-triazadocosan-22-oate]",Encapsulation Efficiency %,[1],96%
same,In vitro Expression RAW,RAW 264.7 cells [2],2.24E+04
same,In vitro Expression HepG2,Hep G2 cells [3],2.48E+03
same,In vivo Expression (Whole Body),BALB/C mice,1.43E+05
same,PDI,[4],0.187
same,Size,[4],134.6
same,Zeta (mV),[5],10.84 mV
same,In vitro Viability HepG2,Hep G2 cells [6],17%
same,In vitro Viability RAW,RAW 264.7 cells [7],8%
"CCCCC/C=C\C/C=C\CCCCCCCCN(CCCCCCCC(=O)OC(CCCCCCCC)CCCCCCCC)CCOC(=O)NCCCN(C)C [Lipid 130, heptadecan-9-yl 2-methyl-11-((9Z,12Z)-octadeca-9,12-dien-1-yl)-7-oxo-8-oxa-2,6,11-triazanonadecan-19-oate]",Encapsulation Efficiency %,[1],99%
same,In vitro Expression RAW,RAW 264.7 cells [2],6.92E+05
same,In vitro Expression HepG2,Hep G2 cells [3],5.31E+06
same,In vivo Expression (Whole Body),BALB/C mice,1.08E+07
same,PDI,[4],0.1685
same,Size,[4],145.8
same,Zeta (mV),[5],11.37 mV
same,In vitro Viability HepG2,Hep G2 cells [6],91%
same,In vitro Viability RAW,RAW 264.7 cells [7],90%
"CCCCC/C=C\C/C=C\CCCCCCCCN(CCCCCCCC(=O)OC(CCCCCCCC)CCCCCCCC)CCOC(=O)NCCCn1ccnc1 [Lipid 133, heptadecan-9-yl 8-((2-(((3-(1H-imidazol-1-yl)propyl)carbamoyl)oxy)ethyl)((9Z,12Z)-octadeca-9,12-dien-1-yl)amino)octanoate]",Encapsulation Efficiency %,[1],95%
same,In vitro Expression RAW,RAW 264.7 cells [2],8.30E+04
same,In vitro Expression HepG2,Hep G2 cells [3],4.26E+04
same,In vivo Expression (Whole Body),BALB/C mice,2.04E+08
same,PDI,[4],0.0973
same,Size,[4],92.91
same,Zeta (mV),[5],2.957 mV
same,In vitro Viability HepG2,Hep G2 cells [6],13%
same,In vitro Viability RAW,RAW 264.7 cells [7],27%
"CCCCC/C=C\C/C=C\CCCCCCCCN(CCCCCCCC(=O)OC(CCCCCCCC)CCCCCCCC)CCOC(=O)NCCN1CCOCC1 [Lipid 134, heptadecan-9-yl 8-((2-(((2-morpholinoethyl)carbamoyl)oxy)ethyl)((9Z,12Z)-octadeca-9,12-dien-1-yl)amino)octanoate]",Encapsulation Efficiency %,[1],90%
same,In vitro Expression RAW,RAW 264.7 cells [2],5.25E+04
same,In vitro Expression HepG2,Hep G2 cells [3],3.17E+04
same,In vivo Expression (Whole Body),BALB/C mice,8.93E+05
same,PDI,[4],0.043
same,Size,[4],89.71
same,Zeta (mV),[5],−8.698 mV
same,In vitro Viability HepG2,Hep G2 cells [6],13%
same,In vitro Viability RAW,RAW 264.7 cells [7],84%
